Measured values taken from patent US20110237606A1, “3-Deazaneplanocin Derivatives” (AGENCY OF SCIENCE, TECHNOLOGY AND RESEARCH, priority 2008, published 2011).
Structures can show the parent of a compound that is named as a salt.

Tests used:
[1] = system: HCT-116 colorectal carcinoma xenograft; assay: In vivo efficacy in mouse HCT-116 colorectal carcinoma xenograft model
Experimental: The in vivo efficacy and toxicity of D3 was evaluated in a mouse HCT-116 colorectal carcinoma xenograft model.
Female athymic BALB/c nude mice (ARC, West Australia), 18-20 weeks of age, are fed with sterilized tap water (ad libitum water) and irradiated standard rodent diet consisting of: 19% protein, 5% fat, and 5% fiber. Mice are housed in individual ventilated cages on 12-hour light cycle at 21-22° C. and 40-60% humidity. Biological Resource Centre, Biopolis (BRC) complies with the recommendations of the guide for care and use of Laboratory Animals with respect to restraint, husbandry, surgical procedures, feed and fluid regulation, and veterinary care. The animal cares and use program (#070276) at BRC was Institutional Animal Care and Use Committee (IACUC) accredited.
D3 was provided in powder form, dissolved in 10% DMSO in sterile 1×PBS and stored in −20° C. Every mouse will receive a dose of 30-60 mg per kilogram body weight by intraperitoneal injection (ip).
Mice were implanted subcutaneously in the left flank with 5×10^6 cells of HCT-116 parental human colon carcinoma. The tumors were allowed to grow for 8 days and thereafter monitored every 2-3 days by caliper.
On the day 1, nude mice were divided into 2 groups according to tumor volume to ensure tumor volume evenly distributed into each group. Each group comprised 7 animals. Drug treatment was initiated on day 1. D3 is administered ip at doses of 30 mg/kg for 7 days followed by 60 mg/kg for another 5 days on once-a-day basis. Another group of mice received receive only vehicle by ip route. […] The study was terminated on Day 14.
Estimated tumor volume was calculated using the formula:
Tumor volume (mm^3)=(w^2×l)/2
where w=width and l=length in mm of an HCT-116 carcinoma.
Compound efficacy was assessed by the tumor growth inhibition (TGI) method in which tumor volume of treatment groups are compared to the vehicle controls. The percent tumor growth inhibition (% TGI) is calculated as follows:
% TGI=[…]×100
where: • Cday 1=median tumor volume for the control group (vehicle) on day 1 • Cday a=median tumor volume for the control group (vehicle) on day a • Tday a=median tumor volume for a treatment group on day a Animals classified as NTRD (non-treatment-related deaths) were excluded from TGI calculations.
The two sample t-test was used to determine the statistical significance of body weight changes and tumor volumes between groups. Statistical analyses were conducted at a p level of 0.05. SPSS was used for all statistical analyses and graphic presentations.

[2] = system: HCT115 ER-E2F1 cells; assay: E2F1-induced apoptosis assay (ER-E2F1 activated by 4-OHT), FACS subG1; assay type: cell-based
Text: Two assays were used to measure the compound's activity in induce apoptosis. The first assay measures the activity of compound to activate E2F1-induced apoptosis. In this assay, transcription factor E2F1 was engineered with ER receptor ligand binding domain. Addition of 4-OHT will be able to activate ER-E2F1 complex activity.
Fluorescence activated cell sorting (FACS) also known as flow cytometry is the technique used to determine apoptosis in this set of experiments. Apoptosis is indicated by cell populations with DNA content in the subG1 range. To determine the activity of these compounds, the inventors used HCT115 ER-E2F1 cells to determine the activity of the compound in inducing E2F1-dependent apoptosis. In this assay, addition of 4-OHT ligand will activate E2F1. DZNep has been show previously to activate OHT-induced apoptosis in this system.

[3] = Maximum tolerated dose in vivo; details: compared to DZNep

SMILES	tumor volume versus vehicle group ([1]; D3 ip 30 mg/kg 7 days then 60 mg/kg 5 days, p=0.033)	tumor growth inhibition ([1]; D3 ip 30 then 60 mg/kg, day 7)	tumor growth inhibition ([1]; D3 ip 30 then 60 mg/kg, day 9)	tumor growth inhibition ([1]; D3 ip 30 then 60 mg/kg, day 12)	tumor growth inhibition ([1]; D3 ip 30 then 60 mg/kg, end point day 14)	ability to cause apoptosis in the induction of E2F1-dependent apoptosis ([2]; compared with DZNep)	E2F1 Induced apoptosis (+4-OHT) % Apoptosis ([2]; with 4-OHT (value in parentheses))	maximum tolerated dose (MTD) [3]	tumor growth inhibition ([1]; I3 30 mg/kg, day 6)	tumor growth inhibition ([1]; I3 30 mg/kg, day 8)	tumor growth inhibition ([1]; I3 30 mg/kg, day 10)	tumor growth inhibition ([1]; I3 30 mg/kg, day 13)	tumor growth inhibition ([1]; I3 30 mg/kg, end point day 14)	tumor volume versus vehicle group ([1]; I3 30 mg/kg, p=0.037)	tumor volume versus vehicle group ([1]; I3 60 mg/kg, p=0.000)	tumor growth inhibition ([1]; I3 60-80 mg/kg, day 6)	tumor growth inhibition ([1]; I3 60-80 mg/kg, day 8)	tumor growth inhibition ([1]; I3 60-80 mg/kg, day 10)	tumor growth inhibition ([1]; I3 60-80 mg/kg, day 13)	tumor growth inhibition ([1]; I3 60-80 mg/kg, end point day 14)
COCC1=C[C@@H](n2cnc3c(N)ncnc32)[C@H](O)[C@@H]1O [Compound 25, (1S,2R,5R)-5-(6-amino-9H-purin-9-yl)-3-(methoxymethyl)cyclopent-3-ene-1,2-diol hydrochloride]	statistically significantly smaller	about 49%	~56%	~54%	~54%	as effectively as DZNep	60%	higher												
Nc1ncnc2c1ncn2[C@@H]1CC[C@@H](O)[C@H]1O [Compound I3, (1R,2S,3R)-3-(6-amino-9H-purin-9-yl)cyclopentane-1,2-diol]									about 40%	~43%	~31%	~35%	~34%	statistically significantly smaller	statistically significantly smaller	about 50%	~65%	~60%	~68%	~63%
